In US20250230193A1, “CYCLIC COMPOUND HAVING SELECTIVE KRAS INHIBITORY EFFECT ON HRAS AND NRAS” (CHUGAI SEIYAKU KABUSHIKI KAISHA, priority 2022, published 2025):

Key:
[1] = biological target: GDP-bound NRAS wild-type protein (Homo sapiens, UniProt P01111); assay: Binding to NRAS by surface plasmon resonance (SPR), Single Cycle Kinetics; conditions: SPR, GDP-bound NRAS wild-type vs GDP-bound KRAS wild-type
[2] = biological target: GDP-bound HRAS wild-type protein (Homo sapiens, UniProt P01112); assay: Binding to HRAS by surface plasmon resonance (SPR), Single Cycle Kinetics; conditions: SPR, GDP-bound HRAS wild-type vs GDP-bound KRAS wild-type
Chain of GDP-bound HRAS wild-type protein (P01112 whole entry): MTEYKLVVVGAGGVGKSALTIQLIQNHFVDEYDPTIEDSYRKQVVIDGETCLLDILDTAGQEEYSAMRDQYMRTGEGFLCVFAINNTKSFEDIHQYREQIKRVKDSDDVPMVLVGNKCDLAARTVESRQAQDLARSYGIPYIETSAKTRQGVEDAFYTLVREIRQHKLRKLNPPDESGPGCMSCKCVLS

Chain of GDP-bound NRAS wild-type protein (P01111 whole entry): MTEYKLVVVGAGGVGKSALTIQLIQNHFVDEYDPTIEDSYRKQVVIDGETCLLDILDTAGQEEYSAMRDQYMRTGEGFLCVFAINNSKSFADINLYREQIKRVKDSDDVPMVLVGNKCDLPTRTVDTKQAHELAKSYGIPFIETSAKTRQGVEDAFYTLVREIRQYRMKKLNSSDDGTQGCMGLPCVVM

Compound | NRAS/KRAS (ratio of KD value with respect to NRAS to KD value with respect to KRAS) [1] | HRAS/KRAS (ratio of KD value with respect to HRAS to KD value with respect to KRAS) [2]
C=CCN1CC(=O)N(C)[C@H]2C/C=C\CCN(C2=O)[C@@H](Cc2ccc(C(F)(F)F)cc2)C(=O)N(C)CC(=O)N[C@@H](CCc2ccc(C(F)(F)F)c(OC)c2)C(=O)N2C[C@H](OCC)C[C@H]2C(=O)NC2(CC(C)(C)C2)C(=O)N(C)[C@@H](C2CCCC2)C(=O)N(C)[C@H](C(=O)N(C)C)CC(=O)N(C)[C@@H](CCC)C(=O)N[C@@H]([C@@H](C)CC)C1=O [PP2106] | A (a compound having 10 or more and less than 20 is denoted as A) | A (a compound having 10 or more and less than 20 is denoted as A)
C#CCN1CC(=O)N(C)[C@H]2C/C=C\CCN(C2=O)[C@@H](Cc2ccc(C(F)(F)F)cc2)C(=O)N(C)CC(=O)N[C@@H](CCc2ccc(C(F)(F)F)c(OC)c2)C(=O)N2C[C@H](OCC)C[C@H]2C(=O)NC2(CC(C)(C)C2)C(=O)N(C)[C@@H](C2CCCC2)C(=O)N(C)[C@H](C(=O)N(C)C)CC(=O)N(C)[C@@H](CCC)C(=O)N[C@@H]([C@@H](C)CC)C1=O [PP2107] | A (a compound having 10 or more and less than 20 is denoted as A) | A (a compound having 10 or more and less than 20 is denoted as A)
CCC[C@H]1C(=O)N[C@@H]([C@@H](C)CC)C(=O)N(CCC)CC(=O)N(C)[C@H]2C/C=C\CCN(C2=O)[C@@H](Cc2ccc(C)cc2)C(=O)N(C)CC(=O)N[C@@H](CCc2cc(F)c(C(F)(F)F)c(F)c2)C(=O)N2C[C@H](OCC)C[C@H]2C(=O)NC2(CC(C)(C)C2)C(=O)N(C)[C@@H](C2CCCC2)C(=O)N(C)[C@H](C(=O)N(C)C)CC(=O)N1C [PP2108] | A (a compound having 10 or more and less than 20 is denoted as A) | A (a compound having 10 or more and less than 20 is denoted as A)
CCO[C@@H]1C[C@H]2C(=O)NC3(CC(C)(C)C3)C(=O)N(C)[C@@H](C3CCCC3)C(=O)N(C)[C@H](C(=O)N(C)C)CC(=O)N(C)[C@@H](CC(C)C)C(=O)N[C@@H]([C@@H](C)CC)C(=O)N(C3CC3)CC(=O)N(C)[C@H]3C/C=C\CCN(C3=O)[C@@H](Cc3ccc(C)cc3)C(=O)N(C)CC(=O)N[C@@H](CCc3cc(F)c(C(F)(F)F)c(F)c3)C(=O)N2C1 [PP2109] | A (a compound having 10 or more and less than 20 is denoted as A) | A (a compound having 10 or more and less than 20 is denoted as A)
CCO[C@@H]1C[C@H]2C(=O)NC3(CCC3)C(=O)N(C)[C@@H](C3CCCC3)C(=O)N(C)[C@H](C(=O)N(C)CC)CC(=O)N(C)[C@H]3CCCCCc4ccc(cc4)C[C@@H](C(=O)N(C)CC(=O)N[C@@H](CCc4ccc(C(F)(F)F)c(OC)c4)C(=O)N2C1)N1CC/C=C\C[C@@H](C1=O)N(C)C(=O)CN(C)C(=O)[C@H]([C@@H](C)CC)NC3=O [PP2118] | A (a compound having 10 or more and less than 20 is denoted as A) | B (a compound having 3 or more and less than 10 is denoted as B)
CCO[C@@H]1C[C@H]2C(=O)NC3(CC(C)(C)C3)C(=O)N(C)[C@@H](C(CC)CC)C(=O)N(C)[C@H](C(=O)N(C)C)CC(=O)N(C)[C@@H](CC3CC3)C(=O)N[C@@H]([C@@H](C)CC)C(=O)N(C)CC(=O)N(C)[C@H]3C/C=C\CCN(C3=O)[C@@H](Cc3ccc(C(F)(F)F)cc3)C(=O)N(C)CC(=O)N[C@@H](CCc3cc(F)c(C(F)(F)F)c(F)c3)C(=O)N2C1 [PP2119] | A (a compound having 10 or more and less than 20 is denoted as A) | B (a compound having 3 or more and less than 10 is denoted as B)
CCO[C@@H]1C[C@H]2C(=O)NC3(CC(C)(C)C3)C(=O)N(C)[C@@H](C(CC)CC)C(=O)N(C)[C@H](C(=O)N(C)C)CC(=O)N(C)[C@@H](CC3CCC3)C(=O)N[C@@H]([C@@H](C)CC)C(=O)N(C)CC(=O)N(C)[C@H]3C/C=C\CCN(C3=O)[C@@H](Cc3ccc(C)cc3)C(=O)N(C)CC(=O)N[C@@H](CCc3ccc(Cl)c(Cl)c3)C(=O)N2C1 [PP2120] | AA (a compound having 20 or more is denoted as AA) | A (a compound having 10 or more and less than 20 is denoted as A)
CCO[C@@H]1C[C@H]2C(=O)NC3(CC(C)(C)C3)C(=O)N(C)[C@@H](C(CC)CC)C(=O)N(C)[C@H](C(=O)N(C)C)CC(=O)N(C)[C@@H](COC)C(=O)N[C@@H]([C@@H](C)CC)C(=O)N(C)CC(=O)N(C)[C@H]3C/C=C\CCN(C3=O)[C@@H](Cc3ccc(C(F)(F)F)cc3)C(=O)N(C)CC(=O)N[C@@H](CCc3cc(F)c(C(F)(F)F)c(F)c3)C(=O)N2C1 [PP2121] | AA (a compound having 20 or more is denoted as AA) | A (a compound having 10 or more and less than 20 is denoted as A)
CCO[C@@H]1C[C@H]2C(=O)NC3(CC(C)(C)C3)C(=O)N(C)[C@@H](C(CC)CC)C(=O)N(C)[C@H](C(=O)N(C)C)CC(=O)N(C)[C@@H](C(C)C)C(=O)N[C@@H]([C@@H](C)CC)C(=O)N(C)CC(=O)N(C)[C@H]3C/C=C\CCN(C3=O)[C@@H](Cc3ccc(C)cc3)C(=O)N(C)CC(=O)N[C@@H](CCc3ccc(Cl)c(Cl)c3)C(=O)N2C1 [PP2122] | AA (a compound having 20 or more is denoted as AA) | A (a compound having 10 or more and less than 20 is denoted as A)
CCO[C@@H]1C[C@H]2C(=O)NC3(CC(C)(C)C3)C(=O)N(C)[C@@H](C(CC)CC)C(=O)N(C)[C@H](C(=O)N3CCCC3)CC(=O)N(C)[C@@H](COC)C(=O)N[C@@H]([C@@H](C)CC)C(=O)N(C)CC(=O)N(C)[C@H]3C/C=C\CCN(C3=O)[C@@H](Cc3ccc(C(F)(F)F)cc3)C(=O)N(C)CC(=O)N[C@@H](CCc3cc(F)c(C(F)(F)F)c(F)c3)C(=O)N2C1 [PP2123] | A (a compound having 10 or more and less than 20 is denoted as A) | A (a compound having 10 or more and less than 20 is denoted as A)
CCO[C@@H]1C[C@H]2C(=O)NC3(CC(C)(C)C3)C(=O)N(C)[C@@H](C(CC)CC)C(=O)N(C)[C@H](C(=O)N(C)C)CC(=O)N(C)[C@@H](CC3CC3)C(=O)N[C@@H]([C@@H](C)CC)C(=O)N(C)CC(=O)N(C)[C@H]3C/C=C\CCN(C3=O)[C@@H](Cc3ccc(C(F)(F)F)cc3)C(=O)N(C)CC(=O)N[C@@H](CCc3ccc(C(F)(F)F)c(Cl)c3)C(=O)N2C1 [PP2124] | AA (a compound having 20 or more is denoted as AA) | A (a compound having 10 or more and less than 20 is denoted as A)
CCC[C@H]1C(=O)N[C@@H]([C@@H](C)CC)C(=O)N(C)CC(=O)N(C)[C@H]2C/C=C\CCN(C2=O)[C@@H](Cc2ccc(C(F)(F)F)cc2)C(=O)N(C)CC(=O)N[C@@H](CCc2cc(F)c(C(F)(F)F)c(F)c2)C(=O)N2C[C@H](OCC)C[C@H]2C(=O)NC2(CC(C)(C)C2)C(=O)N(C)[C@@H](C(CC)CC)C(=O)N(C)[C@H](C(=O)N(C)C)CC(=O)N1C [PP2125] | AA (a compound having 20 or more is denoted as AA) | A (a compound having 10 or more and less than 20 is denoted as A)
CCO[C@@H]1C[C@H]2C(=O)NC3(CC(C)(C)C3)C(=O)N(C)[C@@H](C(CC)CC)C(=O)N(C)[C@H](C(=O)N(C)C)CC(=O)N(C)[C@@H](COC)C(=O)N[C@@H]([C@@H](C)CC)C(=O)N(C)CC(=O)N(C)[C@H]3C/C=C\CCN(C3=O)[C@@H](Cc3ccc(C(F)(F)F)cc3)C(=O)N(C)CC(=O)N[C@@H](CCc3ccc(C(F)(F)F)c(Cl)c3)C(=O)N2C1 [PP2126] | A (a compound having 10 or more and less than 20 is denoted as A) | B (a compound having 3 or more and less than 10 is denoted as B)
CCO[C@@H]1C[C@H]2C(=O)NC3(CC(C)(C)C3)C(=O)N(C)[C@@H](C(CC)CC)C(=O)N(C)[C@H](C(=O)N(C)C)CC(=O)N(C)[C@@H](CC(C)C)C(=O)N[C@@H]([C@@H](C)CC)C(=O)N(C)CC(=O)N(C)[C@H]3C/C=C\CCN(C3=O)[C@@H](Cc3ccc(C(F)(F)F)cc3)C(=O)N(C)CC(=O)N[C@@H](CCc3cc(F)c(C(F)(F)F)c(F)c3)C(=O)N2C1 [PP2127] | AA (a compound having 20 or more is denoted as AA) | A (a compound having 10 or more and less than 20 is denoted as A)
CCO[C@@H]1C[C@H]2C(=O)NC3(CC(C)(C)C3)C(=O)N(C)[C@@H](C(CC)CC)C(=O)N(C)[C@H](C(=O)N3CCCC3)CC(=O)N(C)[C@@H](COC)C(=O)N[C@@H]([C@@H](C)CC)C(=O)N(C)CC(=O)N(C)[C@H]3C/C=C\CCN(C3=O)[C@@H](Cc3ccc(C(F)(F)F)cc3)C(=O)N(C)CC(=O)N[C@@H](CCc3ccc(C(F)(F)F)c(Cl)c3)C(=O)N2C1 [PP2128] | AA (a compound having 20 or more is denoted as AA) | A (a compound having 10 or more and less than 20 is denoted as A)
CCO[C@@H]1C[C@H]2C(=O)NC3(CC(C)(C)C3)C(=O)N(C)[C@@H](C(CC)CC)C(=O)N(C)[C@H](C(=O)N(C)C)CC(=O)N(C)[C@@H](CC(C)C)C(=O)N[C@@H]([C@@H](C)CC)C(=O)N(C)CC(=O)N(C)[C@H]3C/C=C\CCN(C3=O)[C@@H](Cc3ccc(C(F)(F)F)cc3)C(=O)N(C)CC(=O)N[C@@H](CCc3ccc(C(F)(F)F)c(Cl)c3)C(=O)N2C1 [PP2132] | AA (a compound having 20 or more is denoted as AA) | A (a compound having 10 or more and less than 20 is denoted as A)
